Test results from patent US20250360167A1 (Keryx Biopharmaceuticals, Inc., priority 2013, published 2025).

Columns and labels:
[1] = Dissolution testing, USP <711> vessels, Apparatus II; format: physicochemical; details: relative to standard = 100
serum bicarbonate = test: Phase 3 trial (Example 1): serum bicarbonate concentration; format: in vivo, human; details: for Serum Bicarbonate Concentration, Mean / Serum Bicarbonate Concentration, Median / Serum Bicarbonate Concentration, LS Mean / Serum Bicarbonate Concentration, Change from Baseline, Mean / Serum Bicarbonate Concentration, Change from Baseline, Median / Serum Bicarbonate Concentration, Treatment Differences, LS Mean (KRX-0502) − LS Mean (control), (SE): Table 18; for Serum Bicarbonate Concentration, LS Mean: ANCOVA
Method: Serum bicarbonate was performed at a local laboratory and was done at the Randomization Visit (Visit 4); at Visits 11 (Week 12), 14 (Week 24), 17 (Week 36), 20 (Week 48) and 21 (Week 52) during the Safety Assessment Period; and at Visit 25 (Week 56) of the Efficacy Assessment Period.
• 1. Change in serum calcium concentration at Weeks 12, 24, 36, 48, and 52 as compared to baseline (Visit 4). This variable will be analyzed using LOCF methodology. ANCOVA will be employed. The model will include treatment (fixed effect), and baseline (covariate). • 2. Change in ferritin, and TSAT at Weeks 12, 24, 36 and 48 as compared to baseline (Visit 4). This variable will be analyzed using LOCF methodology. ANCOVA will be employed. The model will include treatment (fixed effect), and baseline (covariate). • 3. Change in serum iron and TIBC at Weeks 12, 24, 36, 48, and 52 as compared to baseline (Visit 4). This variable will be analyzed using LOCF methodology. ANCOVA will be employed. The model will include treatment (fixed effect), and baseline (covariate). • 4. Change in Ca x P product at Weeks 12, 24, 36, 48, and 52 as compared to baseline (Visit 4). This variable will be analyzed using LOCF methodology. ANCOVA will be employed. The model will include treatment (fixed effect), and baseline (covariate). • 5. Change in iPTH at Weeks 12, 36, 52, and 56 as compared to baseline (Visit 4). This variable will be analyzed using LOCF methodology. ANCOVA will be employed. The model will include treatment (fixed effect), and baseline (covariate). • 6. Change in serum […], vitamin A, vitamin B-12, vitamin E, vitamin K and folic acid at Weeks 12, 36, and 52 as compared to baseline (Visit 4). This variable will be analyzed using LOCF methodology. ANCOVA will be employed. The model will include treatment (fixed effect), and baseline (covariate). • 7. Change in serum bicarbonate concentration at Weeks 12, 36, and 52 as compared to baseline (Visit 4). This variable will be analyzed using LOCF methodology. ANCOVA will be employed. The model will include treatment (fixed effect), and baseline (covariate). • 8. Change in IV iron intake at Weeks 12, 24, 36, 48, and 52 as compared to baseline (Visit 4). This variable will be analyzed using LOCF methodology. ANCOVA will be employed. The model will include treatment (fixed effect), and baseline (covariate). • 9. Change in the use of EPO (ESA) administered at Weeks 12, 24, 36, 48, and 52 as compared to baseline (Visit 4). This variable will be analyzed using LOCF methodology. ANCOVA will be employed. The model will include treatment (fixed effect), and baseline (covariate). • 10. Change in the use of Vitamin D supplementation (and its analogs) and Sensipar (cinacalcet) at Weeks 12, 24, 36, 48, and 52 as compared to baseline (Visit 4). This variable will be analyzed using LOCF methodology. ANCOVA will be employed. The model will include treatment (fixed effect), and baseline (covariate). • 11. Change in LDL, HDL, and triglycerides at Weeks 12, 36, and 52 as compared to baseline (Visit 4). This variable will be analyzed using LOCF methodology. ANCOVA will be employed. The model will include treatment (fixed effect), and baseline (covariate).

[2] = Day 0 Baseline, Safety Assessment Period

## iron (+3), x (1, 2, 3-propanetricarboxylic acid, 2-hydroxy-), y (H2O) [KRX-0502]
[1]; 5 minutes
  Dissolution testing, percentage dissolved: ≥ 91%
[1]; 15 minutes
  Dissolution testing, percentage dissolved: ≥ 96%
[1]; 30 minutes
  Dissolution testing, percentage dissolved: ≥ 96%
[1]; 60 minutes
  Dissolution testing, percentage dissolved: ≥ 95%
Serum bicarbonate; [2]
  Serum Bicarbonate Concentration, Mean: 23.92
  Serum Bicarbonate Concentration, Median: 24.00
Serum bicarbonate; Week 12
  Serum Bicarbonate Concentration, LS Mean: 25.60
  Serum Bicarbonate Concentration, Change from Baseline, Mean: 1.57
  Serum Bicarbonate Concentration, Change from Baseline, Median: 1.05
  Serum Bicarbonate Concentration, Mean: 25.63
  Serum Bicarbonate Concentration, Median: 25.00
  Serum Bicarbonate Concentration, Treatment Differences, LS Mean (KRX-0502) − LS Mean (control), (SE): −0.72 (0.37)
Serum bicarbonate; Week 24
  Serum Bicarbonate Concentration, LS Mean: 25.35
  Serum Bicarbonate Concentration, Change from Baseline, Mean: 1.48
  Serum Bicarbonate Concentration, Change from Baseline, Median: 1.00
  Serum Bicarbonate Concentration, Mean: 25.39
  Serum Bicarbonate Concentration, Median: 25.45
  Serum Bicarbonate Concentration, Treatment Differences, LS Mean (KRX-0502) − LS Mean (control), (SE): −0.39 (0.38)
Serum bicarbonate; Week 36
  Serum Bicarbonate Concentration, LS Mean: 25.22
  Serum Bicarbonate Concentration, Change from Baseline, Mean: 1.36
  Serum Bicarbonate Concentration, Change from Baseline, Median: 1.00
  Serum Bicarbonate Concentration, Mean: 25.27
  Serum Bicarbonate Concentration, Median: 25.00
  Serum Bicarbonate Concentration, Treatment Differences, LS Mean (KRX-0502) − LS Mean (control), (SE): −0.15 (0.34)
Serum bicarbonate; Week 48
  Serum Bicarbonate Concentration, LS Mean: 24.78
  Serum Bicarbonate Concentration, Change from Baseline, Mean: 0.91
  Serum Bicarbonate Concentration, Change from Baseline, Median: 1.00
  Serum Bicarbonate Concentration, Mean: 24.81
  Serum Bicarbonate Concentration, Median: 25.00
  Serum Bicarbonate Concentration, Treatment Differences, LS Mean (KRX-0502) − LS Mean (control), (SE): −0.52 (0.36)
Serum bicarbonate; Week 52
  Serum Bicarbonate Concentration, LS Mean: 24.60
  Serum Bicarbonate Concentration, Change from Baseline, Mean: 0.71
  Serum Bicarbonate Concentration, Change from Baseline, Median: 1.00
  Serum Bicarbonate Concentration, Mean: 24.63
  Serum Bicarbonate Concentration, Median: 25.00
  Serum Bicarbonate Concentration, Treatment Differences, LS Mean (KRX-0502) − LS Mean (control), (SE): −0.70 (0.44)
Serum bicarbonate; administered for a period of 52 weeks, stated as embodiment
  mean increase in serum bicarbonate concentration: 0.71 mEq/L
